Common to all, as to format: cell-based
One assay relates to E. coli MG1655. The experiment in a line: Hydroxyl radical formation (HPF dye, flow cytometry) in E. coli. To be noted: E. coli; 250 ng/mL norfloxacin, 5 μg/mL ampicillin, 5 μg/mL kanamycin; bacteriostatic drugs; 3 hours after addition. Here is the method: (§1) Growth Conditions. In the experiments, the growth and survival of untreated exponential phase E. coli, or S. aureus, were compared to cultured treated with antibiotics at the above concentrations. E. coli cultures were treated with norfloxacin, kanamycin, ampicillin, rifamycin SV, chloramphenical, tetracycline, erythromycin, or spectinomycin, where appropriate, S. aureus cultures were treated with norfloxacin, vancomycin or chloramphenical, where appropriate.
(§2) Hydroxyl radical and DNA damage sensor experiments using the flow cytometer. To monitor the occurrence of DNA damage, the engineered DNA damage sensor was used, which responds to auto-cleavage of LexA by activating expression of gfpmut3b. All the drug treatments and the no-drug controls were collected with both the kanamycin- and ampicillin-resistant version of the plasmid, with the exception of the ampicillin treatment (kanamycin plasmid only) and the kanamycin treatment (ampicillin plasmid only). All data were collected using a Becton Dickinson FACSCalibur flow cytometer (Becton Dickinson, San Jose, Calif.) with a 488-nm argon laser and a 515- to 545-nm emission filter (FL1) at low flow rate. The following PMT voltage settings were used: E00 (FSC), 360 (SSC) and 700 (FL1). To detect hydroxyl radical formation, the fluorescent reporter dye, 3′-(p-hydroxyphenyl) fluorescein (HPF, Invitrogen, Carlsbad, Calif.) was used at a concentration of 5 μM (1:1000) dilution), which is oxidized by hydroxyl radicals with high specificity. The following PMT voltage settings were used: E00 (FSC), 360 (SSC) and 825 (FL 1). Calibrite beads (Becton Dickinson) were used for instrument calibration.
Flow data were processed and analyzed with MATLAB (MathWorks, Natick, Mass.) to construct figures. At least 50,000 cells were collected for each sample. In all experiments, cells were grown as described above. Samples were taken immediately before addition of drug (time zero), then every hour for 3 hours. At each timepoint, approximately […] were collected, washed once and resuspended in filtered 1×PBS, pH 7.2 (Fisher Scientific), and fluorescence was measured on the flow cytometer.
In the present study, the Applicants chose to investigate whether hydroxyl radical formation also contributes to antibiotic-induced cell death in bacteria. Using the dye hydroxyphenyl fluorescein, HPF, which is oxidized by hydroxyl radicals with high specificity, hydroxyl radical formation was first observed over a range of hydrogen peroxide concentrations known to induce hydroxyl radicals through the reduction of hydrogen peroxide by ferrous iron. In this manner, it was possible to establish the scale of hydroxyl radical formation detectable using this dye via flow cytometry.
In general terms: In flow cytometry, cells or beads pass a laser one at a time.

For a further assay, the system named is S. aureus strain RN4220. The experiment in a line: MIC of Nor for S. aureus RN4220 and RN4220 recA−. Particulars: Staphylococcus aureus. Here is the method:
The growth and response to quinolone of S. aureus strain RN4220 (wild type) and its recA^− derivative (RN4220 recA^−) were first examined. These strains have been described in the literature (Bayles et al., 1994). The RN4220 recA null mutant (RN4220 recA^−) contains the recA569 allele and is referred to KB103 in Bayles, et al., 1994. […] MICs were determined as described above.
Further details of the assay are as follows: Overnight mutant MG1655 or Staph cultures of clones were grown in 5 mL of LB with appropriate selective agents at 37° C. with shaking. A morning culture was started in a 96 well plate with 16 μL of cells into 1.6 mL of LB and the appropriate plasmid selective agent. […] Serial dilutions were done with 100 μL of drug into 100 μL of H2O. […] 20 μL of each log phase culture was put into a well of one row of a 96 well plate containing […] of LB and the appropriate selective agent. 4.5 μL of each drug concentration was arrayed into the 8 rows of a sterile 300 μL 96-well plate. 250 μL of inoculated culture was added to each column of the sterile 300 μL 96-well plate with drug. The final plate has a different clone in each column and a different Norfloxacin concentration in each row. Plates were grown overnight at 37° C. with shaking. The OD600 of the plate was measured after 16 hours.

The subject of assay [1] is wild-type strain of S. aureus. As to the kind of experiment: Hydroxyl radical formation (HPF dye, flow cytometry) in S. aureus. Particulars: norfloxacin, chloramphenical. As to the method: For work with S. aureus, a Staphylococcus aureus subspecies aureus Rosenback strain was used that was obtained from ATCC (29740).
as §1, §2

Assay [2] has as its system SOS response (LexA auto-cleavage) in E. coli. The experiment in a line: SOS induction, LexA-controlled GFP DNA damage sensor. Particulars: 5 μg/mL Amp, 5 μg/mL Kan, 25 ng/mL Nor; 3 hours after addition. As to the method:
FIG. 37 is a set of two graphs showing SOS induction in E. coli by bactericidal antibiotics. Activation of the SOS response was monitored using an engineered sensor construct that employs the LexA repressor for control of Green Fluorescent Protein (GFP) expression. Shown are representative GFP histogram measurements taken 3 hours after addition of a, bactericidal antibiotics (5 μg/mL Amp, 5 μg/mL Kan, 25 ng/mL Nor). b, Log change in CFU/mL of ΔrecA E. coli following exposure to 5 μg/mL Kanamycin (open diamonds), 25 ng/mL Norfloxacin (open triangles), and 5 μg/mL Ampicillin (open circles). For comparison, CFU/mL are also shown for widltype E. coli exposed to 5 μg/mL Kanamycin (diamonds), 25 ng/mL Norfloxacin (triangles), and 5 μg/mL Ampicillin (circles), as well as a lower concentration of norfloxacin in these experiments to highlight the significant increase in killing in a recA knockout.
DNA damage sensor construction. The DNA sensor construct with ampicillin resistance was described previously (D. J. Dwyer et al., “Superoxide and hydroxyl radicals contribute to gyrase inhibitor-mediated cell death in E. coli”, 2007 accepted by Mol. Syst. Biol., which is incorporated herein by reference in its entirety).
Hydroxyl radical and DNA damage sensor experiments using the flow cytometer. […]
Hydroxyl radical are extremely toxic, and will readily damage membrane lipids, proteins and DNA. […]

As usually defined, the MIC is the smallest concentration in the dilution series that meets the test's criterion for growth inhibition. As to `CCn1cc(C(=O)O)c(=O)c2cc(F)c(N3CCNCC3)cc21` [Nor, norfloxacin], the hydroxyl radical formation entry in the assay with E. coli MG1655 was “induce hydroxyl radical formation”; in assay [1] it was “increase in hydroxyl radical production”. Further, the minimum inhibitory concentration (MIC) with S. aureus strain RN4220 (RN4220, RN4220) came to 1.53 µg/mL; in the assay on S. aureus strain RN4220 (RN4220, RN4220 recA−) it was 0.38 µg/mL. In addition, the “SOS activity (LexA-driven GFP expression)” value in assay [2] is “significant increase in SOS activity”.

(Values after patent US20090264342A1, “COMPOSITIONS AND METHODS FOR ANTIBIOTIC POTENTIATION AND DRUG DISCOVERY” (priority 2006, published 2009).)
